The structures appear in SMILES notation. Active and inactive are the calls of the source. The calls are words filed in the database; no cut-off is given here.

One assay deals with MM1.S. The assay is described as follows: Antiproliferative activity against human MM1.S cells assessed as cell growth inhibition measured after 4 days by CellTitre-Glo assay. Type of assay: functional, cell-based. To be noted: 96 h.
Assay [1] has as its target T1, Protein cereblon/Bromodomain-containing protein 4 (Homo sapiens) (UniProt O60885+Q96SW2). The assay is described as follows: PROTAC activity at CRBN/BRD4-S in human MM1.S cells assessed as induction of protein degradation at 2 to 10 nM measured after 24 hrs by Western blot analysis. To be noted: dose 2-10 nM. Type of assay: cell-based. Background: In western blotting, separated proteins are transferred to a membrane and probed.

Assay [2] addresses T2, Bromodomain-containing protein 3 (Homo sapiens, UniProt Q15059). Nature of the assay: Binding affinity to recombinant human BRD3 BD1 (24 to 144 residues) assessed as inhibition constant by fluorescence polarization binding assay.
Assay [3] deals with T1, Protein cereblon/Bromodomain-containing protein 4 (Homo sapiens). Nature of the assay: PROTAC activity at CRBN/BRD4-L in human MM1.S cells assessed as induction of protein degradation at 2 to 10 nM measured after 24 hrs by Western blot analysis. In kind it is cell-based. Conditions: dose 2-10 nM.
Assay [4] has as its target T3, Protein cereblon/Bromodomain-containing protein 3 (Homo sapiens) (UniProt Q15059+Q96SW2). The assay is described as follows: PROTAC activity at CRBN/BRD3 in human MM1.S cells assessed as induction of protein degradation at 2 to 10 nM measured after 24 hrs by Western blot analysis. Type of assay: cell-based. To be noted: dose 2-10 nM.
The target of assay [5] is T2, Bromodomain-containing protein 3. The assay is described as follows: Binding affinity to recombinant human BRD3 BD2 (306 to 417 residues) assessed as inhibition constant by fluorescence polarization binding assay. For orientation: Polarisation of emitted light reports the rotation of a fluorescent probe.
In assay [6] the target is Protein cereblon/Bromodomain-containing protein 2 (Homo sapiens) (UniProt P25440+Q96SW2). The assay is described as follows: PROTAC activity at CRBN/BRD2 in human MM1.S cells assessed as induction of protein degradation at 2 to 10 nM measured after 24 hrs by Western blot analysis. In kind it is cell-based. To be noted: dose 2-10 nM.
The subject of the next assay is MV4-11. The assay is described as follows: Antiproliferative activity against human MV4-11 cells assessed as cell growth inhibition measured after 3 days by CellTitre-Glo assay. Type of assay: functional, cell-based. To be noted: MV4-11, 72 h.
Assay [7] concerns the target T3, Protein cereblon/Bromodomain-containing protein 3 (Homo sapiens). The assay is described as follows: PROTAC activity at CRBN/BRD3 in human MM1.S cells assessed as induction of protein degradation at 2 nM measured after 24 hrs by Western blot analysis. In kind it is cell-based.
The target in assay [8] is T1, Protein cereblon/Bromodomain-containing protein 4 (Homo sapiens). Nature of the assay: PROTAC activity at CRBN/BRD4-L in human MM1.S cells assessed as induction of protein degradation at 2 nM measured after 24 hrs by Western blot analysis. In kind it is cell-based.
Another assay concerns HGC-27. The assay is described as follows: Antiproliferative activity against human HGC-27 cells assessed as cell growth inhibition measured after 4 days by CCK-8 assay. In kind it is functional, cell-based. Conditions: HGC-27, 96 h. (In general: Tetrazolium assays rely on reduction of a dye to a coloured formazan, in cell work by metabolically active cells.)
The test system of the next assay is A549. The assay is described as follows: Antiproliferative activity against human A549 cells assessed as cell growth inhibition measured after 4 days by CCK-8 assay. Type of assay: functional, cell-based. Conditions: A549, 96 h.
Another assay deals with HepG2. Nature of the assay: Antiproliferative activity against human HepG2 cells assessed as cell growth inhibition measured after 4 days by CCK-8 assay. Type of assay: functional, cell-based. Conditions: HepG2, 96 h.
For a further assay, the system named is MCF7. Nature of the assay: Antiproliferative activity against human MCF7 cells assessed as cell growth inhibition measured after 4 days by CCK-8 assay. Conditions: MCF7, 96 h. Type of assay: functional, cell-based.
The subject of another assay is HeLa. Nature of the assay: Antiproliferative activity against human HeLa cells assessed as cell growth inhibition measured after 4 days by CCK-8 assay. Type of assay: functional, cell-based. To be noted: 96 h.

Chain of Protein cereblon/Bromodomain-containing protein 2 (Homo sapiens) (P25440 whole entry, looked up): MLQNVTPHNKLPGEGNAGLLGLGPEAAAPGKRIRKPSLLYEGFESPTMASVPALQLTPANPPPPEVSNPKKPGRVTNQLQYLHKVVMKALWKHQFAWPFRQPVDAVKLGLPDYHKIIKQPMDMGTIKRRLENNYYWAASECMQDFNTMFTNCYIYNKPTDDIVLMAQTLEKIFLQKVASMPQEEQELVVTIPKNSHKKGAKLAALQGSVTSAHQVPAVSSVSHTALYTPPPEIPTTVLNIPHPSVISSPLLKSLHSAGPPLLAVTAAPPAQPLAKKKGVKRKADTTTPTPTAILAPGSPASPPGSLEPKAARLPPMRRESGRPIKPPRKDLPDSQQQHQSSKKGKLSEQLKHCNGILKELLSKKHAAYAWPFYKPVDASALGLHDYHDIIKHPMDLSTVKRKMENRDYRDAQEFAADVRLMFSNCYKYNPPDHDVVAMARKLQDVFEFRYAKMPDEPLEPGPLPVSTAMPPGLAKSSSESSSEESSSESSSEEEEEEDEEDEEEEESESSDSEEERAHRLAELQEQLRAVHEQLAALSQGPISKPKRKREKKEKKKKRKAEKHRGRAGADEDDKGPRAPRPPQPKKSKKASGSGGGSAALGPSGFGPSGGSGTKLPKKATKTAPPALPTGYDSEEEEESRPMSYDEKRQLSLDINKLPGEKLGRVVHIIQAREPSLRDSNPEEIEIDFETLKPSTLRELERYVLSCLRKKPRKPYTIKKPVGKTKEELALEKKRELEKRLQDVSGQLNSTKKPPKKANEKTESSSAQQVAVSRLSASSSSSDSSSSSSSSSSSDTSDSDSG
Chain of Protein cereblon/Bromodomain-containing protein 2 (Homo sapiens) (Q96SW2 whole entry, looked up): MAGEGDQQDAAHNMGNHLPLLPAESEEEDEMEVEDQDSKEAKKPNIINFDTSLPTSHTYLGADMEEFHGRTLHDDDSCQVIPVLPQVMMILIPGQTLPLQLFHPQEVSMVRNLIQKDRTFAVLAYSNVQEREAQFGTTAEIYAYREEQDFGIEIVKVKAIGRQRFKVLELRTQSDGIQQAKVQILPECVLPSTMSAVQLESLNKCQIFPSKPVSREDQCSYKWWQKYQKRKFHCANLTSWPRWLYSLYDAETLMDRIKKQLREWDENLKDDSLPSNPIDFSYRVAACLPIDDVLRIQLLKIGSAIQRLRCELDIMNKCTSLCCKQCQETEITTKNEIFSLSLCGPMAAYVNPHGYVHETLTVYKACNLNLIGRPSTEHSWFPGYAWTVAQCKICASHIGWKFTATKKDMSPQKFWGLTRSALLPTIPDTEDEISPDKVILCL
T1 sequence (Q96SW2 whole entry, looked up, other chains not shown): as the sequence (Q96SW2 whole entry, looked up) above
T3 sequence (Q15059 2-726 limits assumed): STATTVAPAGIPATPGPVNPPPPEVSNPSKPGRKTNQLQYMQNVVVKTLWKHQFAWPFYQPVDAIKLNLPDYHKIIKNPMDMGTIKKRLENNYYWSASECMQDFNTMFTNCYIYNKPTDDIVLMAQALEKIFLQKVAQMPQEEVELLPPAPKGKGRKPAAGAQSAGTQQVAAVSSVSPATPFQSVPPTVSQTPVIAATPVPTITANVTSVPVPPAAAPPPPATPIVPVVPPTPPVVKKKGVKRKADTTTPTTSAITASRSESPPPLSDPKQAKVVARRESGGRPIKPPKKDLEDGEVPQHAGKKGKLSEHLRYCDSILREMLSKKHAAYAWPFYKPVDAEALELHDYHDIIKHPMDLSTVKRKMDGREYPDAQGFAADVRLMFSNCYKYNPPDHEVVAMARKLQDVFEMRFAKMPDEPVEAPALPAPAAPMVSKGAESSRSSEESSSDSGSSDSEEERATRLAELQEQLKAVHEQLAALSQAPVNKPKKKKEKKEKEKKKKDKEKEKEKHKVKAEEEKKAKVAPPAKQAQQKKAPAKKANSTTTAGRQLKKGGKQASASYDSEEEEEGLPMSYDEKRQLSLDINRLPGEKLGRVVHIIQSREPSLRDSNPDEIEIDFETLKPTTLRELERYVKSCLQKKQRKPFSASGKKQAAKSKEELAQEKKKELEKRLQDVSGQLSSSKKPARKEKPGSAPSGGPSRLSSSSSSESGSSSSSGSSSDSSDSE
T3 sequence (Q96SW2 whole entry partner, the tested form may be a part): as the sequence (Q96SW2 whole entry, looked up) above
T2 sequence (Q15059 whole entry, the tested form may be a part): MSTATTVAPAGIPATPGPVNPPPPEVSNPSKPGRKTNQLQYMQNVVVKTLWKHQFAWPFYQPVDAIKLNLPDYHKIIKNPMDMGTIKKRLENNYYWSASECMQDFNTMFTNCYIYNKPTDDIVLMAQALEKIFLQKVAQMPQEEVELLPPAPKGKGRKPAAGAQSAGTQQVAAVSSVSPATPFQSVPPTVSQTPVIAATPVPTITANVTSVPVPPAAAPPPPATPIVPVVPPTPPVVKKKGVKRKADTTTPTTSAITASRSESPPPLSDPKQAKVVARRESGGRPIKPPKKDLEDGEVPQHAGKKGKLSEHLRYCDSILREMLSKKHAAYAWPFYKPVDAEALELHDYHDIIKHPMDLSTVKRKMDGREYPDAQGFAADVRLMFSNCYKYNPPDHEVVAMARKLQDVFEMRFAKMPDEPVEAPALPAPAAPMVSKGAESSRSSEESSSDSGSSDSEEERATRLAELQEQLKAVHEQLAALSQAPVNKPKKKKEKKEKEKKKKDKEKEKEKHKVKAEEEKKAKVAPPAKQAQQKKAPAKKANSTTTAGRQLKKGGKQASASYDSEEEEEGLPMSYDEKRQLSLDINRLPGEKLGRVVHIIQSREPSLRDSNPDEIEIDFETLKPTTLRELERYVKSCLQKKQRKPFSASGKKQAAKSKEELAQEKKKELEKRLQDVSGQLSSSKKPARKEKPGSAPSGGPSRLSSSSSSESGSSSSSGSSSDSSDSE

For orientation: IC50 means the concentration that inhibits the measured activity by half. What is called Ki is a measure of affinity in units of concentration, obtained from inhibition or displacement. For the molecule `Cc1nnc2n1-c1ccc(-c3cnn(CC(=O)NCCCCCC#Cc4cccc5c4CN(C4CCC(=O)NC4=O)C5=O)c3)cc1C(Nc1ccc(Cl)cc1)CC2` (stereo not given), the IC50 with MM1.S was 1590 nM; in the assay with MV4-11, 178 nM. Besides, the result in assay [1], in assay [3], in [4] and in assay [6] was inactive. Also, the inhibition constant (Ki) came to 32.9 nM in assay [2] and 6.29 nM in [5].

Consider `Cc1nnc2n1-c1ccc(-c3ccc(CNCCCCCCCc4cccc5c4CN(C4CCC(=O)NC4=O)C5=O)cc3)cc1C(Nc1ccc(Cl)cc1)CC2` (stereo not given), for which the results for the IC50 in the assay with MM1.S and in the assay with MV4-11 were 27.3 nM and 0.76 nM, respectively. Further, the outcome in assay [7] and in [8] was Active. In addition, the figures for the inhibition constant Ki in [2] and in [5] were 7.94 nM and 2.26 nM, respectively.

As for `Cc1nnc2n1-c1ccc(-c3ccc(CNCCCCCc4cccc5c4CN(C4CCC(=O)NC4=O)C5=O)cc3)cc1C(Nc1ccc(Cl)cc1)CC2` (stereo not given), the IC50 with MM1.S is 818 nM; with MV4-11, 233 nM. Moreover, the outcome in assay [7] and in [8] was Active. Also, the values for the Ki in assay [2] and in assay [5] were 15.5 nM and 5.42 nM, respectively.

Consider `Cc1nnc2n1-c1ccc(-c3ccc(CNCCCCc4cccc5c4CN(C4CCC(=O)N(C)C4=O)C5=O)cc3)cc1C(Nc1ccc(Cl)cc1)CC2` (stereo not given), for which the IC50 in the assay on MM1.S came out at 2640 nM; in the assay with HGC-27, 6 µM; in the assay on A549, 8.48 µM; in the assay with HepG2, 7.56 µM; in the assay with MCF7 it was 4.84 µM; in the assay with MV4-11, 593 nM. Further, the IC50 in the assay with HeLa was found to be 3.23 µM. In addition, the values for the Ki in [2] and in assay [5] were 13.1 nM and 2.24 nM, respectively.

Consider `Cc1nnc2n1-c1ccc(-c3ccc(CNCCCc4cccc5c4CN(C4CCC(=O)NC4=O)C5=O)cc3)cc1C(Nc1ccc(Cl)cc1)CC2` (stereo not given), for which the values for the 50% inhibitory concentration (IC50) in the assay on MM1.S and in the assay on MV4-11 were 2830 nM and 1010 nM, respectively. For the same molecule, the outcome in assay [1], in [3], in assay [4] and in [6] was inactive. The Ki turned out to be 18.5 nM in [2] and 2.46 nM in [5].

Turning to `Cc1nnc2n1-c1ccc(-c3cnn(CC(=O)NCCCC#Cc4cccc5c4CN(C4CCC(=O)NC4=O)C5=O)c3)cc1C(Nc1ccc(Cl)cc1)CC2` (stereo not given), the values for the half-maximal inhibitory concentration (IC50) in the assay on MM1.S and with MV4-11 were 8190 nM and 2920 nM, respectively. Further, the outcome in assay [1], in assay [3], in assay [4] and in assay [6] was inactive. The Ki in [2] came to 37.8 nM; in assay [5], 4.96 nM.

In the case of `Cc1nnc2n1-c1ccc(-c3ccc(CNCCC#Cc4cccc5c4CN(C4CCC(=O)NC4=O)C5=O)cc3)cc1C(Nc1ccc(Cl)cc1)CC2` (stereo not given), the IC50 with MM1.S was 3370 nM; with MV4-11, 1560 nM. The inhibition constant Ki stood at 22.2 nM in assay [2] and 5.72 nM in [5].

`Cc1nnc2n1-c1ccc(-c3ccc(CNCCCCCC#Cc4cccc5c4CN(C4CCC(=O)NC4=O)C5=O)cc3)cc1C(Nc1ccc(Cl)cc1)CC2` (stereo not given): the IC50 came to 156 nM in the assay with MM1.S and 19.9 nM in the assay with MV4-11. The outcome in assay [7] and in assay [8] was Active. The inhibitory constant (Ki) in assay [2] is 15.1 nM; in [5], 5.89 nM.

Turning to `Cc1nnc2n1-c1ccc(-c3ccc(CNCCCCC#Cc4cccc5c4CN(C4CCC(=O)NC4=O)C5=O)cc3)cc1C(Nc1ccc(Cl)cc1)CC2` (stereo not given), the IC50 was determined as 158 nM in the assay on MM1.S and 71.4 nM in the assay on MV4-11. Besides, the results for the Ki in assay [2] and in assay [5] were 12.1 nM and 4.73 nM, respectively.

In the case of `Cc1nnc2n1-c1ccc(-c3ccc(CNCC#Cc4cccc5c4CN(C4CCC(=O)NC4=O)C5=O)cc3)cc1C(Nc1ccc(Cl)cc1)CC2` (stereo not given), the IC50 in the assay on MM1.S is 2620 nM; in the assay on MV4-11, 690 nM. Further, the Ki in [2] was 24.6 nM; in [5], 4.81 nM.

`Cc1nnc2n1-c1ccc(-c3ccc(CNCCCCCCc4cccc5c4CN(C4CCC(=O)NC4=O)C5=O)cc3)cc1C(Nc1ccc(Cl)cc1)CC2` (stereo not given): the IC50 was 31.4 nM with MM1.S and 0.4 nM in the assay on MV4-11. Also, the outcome in [7] and in assay [8] was Active. Further, the Ki was 6.73 nM in [2] and 2.16 nM in assay [5].

Turning to `CNCc1ccc(-c2ccc3c(c2)C(Nc2ccc(Cl)cc2)CCc2nnc(C)n2-3)cc1` (stereo not given), the IC50 in the assay with MM1.S worked out at 3790 nM; with MV4-11, 1220 nM. Besides, the values for the Ki in assay [2] and in [5] were 267 nM and 47.2 nM, respectively.

On to `Cc1nnc2n1-c1ccc(-c3cnn(CC(=O)NCCCCC#Cc4cccc5c4CN(C4CCC(=O)NC4=O)C5=O)c3)cc1C(Nc1ccc(Cl)cc1)CC2` (stereo not given), for which the results for the 50% inhibitory concentration (IC50) in the assay on MM1.S and with MV4-11 were 5330 nM and 536 nM, respectively. Besides, the outcome in [1], in assay [3], in assay [4] and in assay [6] was inactive. For the same molecule, the Ki worked out at 29.3 nM in assay [2] and 6.62 nM in assay [5].

`Cc1nnc2n1-c1ccc(-c3ccc(CNCCCC#Cc4cccc5c4CN(C4CCC(=O)NC4=O)C5=O)cc3)cc1C(Nc1ccc(Cl)cc1)CC2` (stereo not given): the results for the half-inhibitory concentration (IC50) in the assay on MM1.S and with MV4-11 were 1310 nM and 649 nM, respectively. Also, the Ki in assay [2] amounted to 48 nM; in assay [5], 5.04 nM.

The values are drawn from ChEMBL document CHEMBL5321219, “Selective degradation of cellular BRD3 and BRD4-L promoted by PROTAC molecules in six cancer cell lines” (Eur J Med Chem, 2023).
